Drawing on ChEMBL document CHEMBL2074244, “Loss of ATP-dependent transport activity in pseudoxanthoma elasticum-associated mutants of human ABCC6 (MRP6)” (J Biol Chem, 2002), this text covers Activity and activity for 3 compounds.

Common to all, as to format: functional, cell membranes, Membrane vesicle
Set-up in all cases: scale not given: the % may be the effect or the level left

Data set [1] has as its target ATP-binding cassette sub-family C member 2 (Homo sapiens, UniProt Q92887). In words: TP_TRANSPORTER: inhibition of NEM-GS by Benzbromarone at a concentration of 30uM in membrane vesicles from MRP2-expressing Sf9 cells. The settings on record: sf9, 30 µM.
Data set [2] has as its target T1, MRP6 (ABCC6) (Homo sapiens, UniProt O95255). The data set is described as follows: TP_TRANSPORTER: inhibition of NEM-GS in the presence of Benzbromarone at a concentration of 30uM in membrane vesicles from MRP6-expressing Sf9 cells. As to conditions: probe NEM-GS, read-out: Activity.
Data set [3] addresses T1, MRP6 (ABCC6). In words: TP_TRANSPORTER: inhibition of NEM-GS by Benzbromarone at a concentration of 30uM in membrane vesicles from MRP6-expressing Sf9 cells. As to conditions: probe NEM-GS, read-out: Activity.
For data set [4], the target named is T1, MRP6 (ABCC6). The data set is described as follows: TP_TRANSPORTER: inhibition of NEM-GS in the presence of Indomethacin at a concentration of 100uM in membrane vesicles from MRP6-expressing Sf9 cells. The settings on record: probe NEM-GS, read-out: Activity.
Data set [5] deals with T1, MRP6 (ABCC6). In words: TP_TRANSPORTER: inhibition of NEM-GS by Indomethacin at a concentration of 100uM in membrane vesicles from MRP6-expressing Sf9 cells. As to conditions: probe NEM-GS, read-out: Activity.
Data set [6] deals with T1, MRP6 (ABCC6). The data set is described as follows: TP_TRANSPORTER: inhibition of NEM-GS in the presence of Probenecid at a concentration of 1mM in membrane vesicles from MRP6-expressing Sf9 cells. The settings on record: probe NEM-GS, read-out: Activity.
The target of data set [7] is ATP-binding cassette sub-family C member 6 (Homo sapiens, UniProt O95255). In words: TP_TRANSPORTER: inhibition of NEM-GS by Probenecid at a concentration of 1mM in membrane vesicles from MRP6-expressing Sf9 cells. As to conditions: sf9, 1000 µM.
Sequence of ATP-binding cassette sub-family C member 6 (O95255 whole entry): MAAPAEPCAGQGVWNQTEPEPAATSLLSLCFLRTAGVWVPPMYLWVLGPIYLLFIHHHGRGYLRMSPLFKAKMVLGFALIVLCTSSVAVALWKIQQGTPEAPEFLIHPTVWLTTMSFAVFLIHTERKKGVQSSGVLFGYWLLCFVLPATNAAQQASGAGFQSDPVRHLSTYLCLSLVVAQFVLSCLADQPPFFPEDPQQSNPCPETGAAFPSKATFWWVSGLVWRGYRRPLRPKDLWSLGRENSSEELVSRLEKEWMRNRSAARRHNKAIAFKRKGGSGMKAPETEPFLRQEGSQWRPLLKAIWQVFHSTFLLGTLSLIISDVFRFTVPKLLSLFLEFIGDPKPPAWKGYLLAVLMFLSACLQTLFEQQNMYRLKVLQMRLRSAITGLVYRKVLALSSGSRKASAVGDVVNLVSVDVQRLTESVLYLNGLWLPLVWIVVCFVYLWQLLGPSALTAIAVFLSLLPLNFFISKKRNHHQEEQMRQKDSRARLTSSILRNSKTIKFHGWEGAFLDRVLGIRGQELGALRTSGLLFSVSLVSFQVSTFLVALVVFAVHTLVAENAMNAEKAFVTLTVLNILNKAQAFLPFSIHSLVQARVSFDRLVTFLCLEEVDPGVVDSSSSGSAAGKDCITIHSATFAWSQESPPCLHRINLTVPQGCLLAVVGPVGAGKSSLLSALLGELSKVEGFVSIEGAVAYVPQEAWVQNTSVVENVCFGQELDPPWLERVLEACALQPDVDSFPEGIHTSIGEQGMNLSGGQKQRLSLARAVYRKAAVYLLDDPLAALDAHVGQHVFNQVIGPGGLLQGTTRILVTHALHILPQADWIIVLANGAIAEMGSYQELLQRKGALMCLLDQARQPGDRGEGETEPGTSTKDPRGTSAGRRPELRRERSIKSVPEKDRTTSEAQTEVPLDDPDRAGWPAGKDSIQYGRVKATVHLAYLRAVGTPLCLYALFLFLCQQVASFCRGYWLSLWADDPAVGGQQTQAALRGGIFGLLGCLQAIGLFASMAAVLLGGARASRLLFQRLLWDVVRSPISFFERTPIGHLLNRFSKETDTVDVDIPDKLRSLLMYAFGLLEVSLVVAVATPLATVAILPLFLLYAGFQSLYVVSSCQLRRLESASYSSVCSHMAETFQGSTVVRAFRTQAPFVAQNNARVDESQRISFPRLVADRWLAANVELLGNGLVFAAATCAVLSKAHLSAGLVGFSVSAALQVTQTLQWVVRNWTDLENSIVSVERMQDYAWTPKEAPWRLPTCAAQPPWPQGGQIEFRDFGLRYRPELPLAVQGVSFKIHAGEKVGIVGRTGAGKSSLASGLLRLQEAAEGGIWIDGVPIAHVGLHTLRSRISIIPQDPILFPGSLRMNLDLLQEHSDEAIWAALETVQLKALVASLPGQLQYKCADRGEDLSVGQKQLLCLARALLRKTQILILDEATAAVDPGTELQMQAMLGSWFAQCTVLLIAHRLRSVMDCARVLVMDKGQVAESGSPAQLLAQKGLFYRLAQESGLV
The target in another data set is MRP2 (ABCC2) (Homo sapiens, UniProt Q92887). The data set is described as follows: TP_TRANSPORTER: inhibition of NEM-GS by Probenecid at a concentration of 1mM in membrane vesicles from MRP2-expressing Sf9 cells. The settings on record: probe NEM-GS, read-out: Activity.
Sequence of MRP2 (ABCC2) (Q92887 whole entry): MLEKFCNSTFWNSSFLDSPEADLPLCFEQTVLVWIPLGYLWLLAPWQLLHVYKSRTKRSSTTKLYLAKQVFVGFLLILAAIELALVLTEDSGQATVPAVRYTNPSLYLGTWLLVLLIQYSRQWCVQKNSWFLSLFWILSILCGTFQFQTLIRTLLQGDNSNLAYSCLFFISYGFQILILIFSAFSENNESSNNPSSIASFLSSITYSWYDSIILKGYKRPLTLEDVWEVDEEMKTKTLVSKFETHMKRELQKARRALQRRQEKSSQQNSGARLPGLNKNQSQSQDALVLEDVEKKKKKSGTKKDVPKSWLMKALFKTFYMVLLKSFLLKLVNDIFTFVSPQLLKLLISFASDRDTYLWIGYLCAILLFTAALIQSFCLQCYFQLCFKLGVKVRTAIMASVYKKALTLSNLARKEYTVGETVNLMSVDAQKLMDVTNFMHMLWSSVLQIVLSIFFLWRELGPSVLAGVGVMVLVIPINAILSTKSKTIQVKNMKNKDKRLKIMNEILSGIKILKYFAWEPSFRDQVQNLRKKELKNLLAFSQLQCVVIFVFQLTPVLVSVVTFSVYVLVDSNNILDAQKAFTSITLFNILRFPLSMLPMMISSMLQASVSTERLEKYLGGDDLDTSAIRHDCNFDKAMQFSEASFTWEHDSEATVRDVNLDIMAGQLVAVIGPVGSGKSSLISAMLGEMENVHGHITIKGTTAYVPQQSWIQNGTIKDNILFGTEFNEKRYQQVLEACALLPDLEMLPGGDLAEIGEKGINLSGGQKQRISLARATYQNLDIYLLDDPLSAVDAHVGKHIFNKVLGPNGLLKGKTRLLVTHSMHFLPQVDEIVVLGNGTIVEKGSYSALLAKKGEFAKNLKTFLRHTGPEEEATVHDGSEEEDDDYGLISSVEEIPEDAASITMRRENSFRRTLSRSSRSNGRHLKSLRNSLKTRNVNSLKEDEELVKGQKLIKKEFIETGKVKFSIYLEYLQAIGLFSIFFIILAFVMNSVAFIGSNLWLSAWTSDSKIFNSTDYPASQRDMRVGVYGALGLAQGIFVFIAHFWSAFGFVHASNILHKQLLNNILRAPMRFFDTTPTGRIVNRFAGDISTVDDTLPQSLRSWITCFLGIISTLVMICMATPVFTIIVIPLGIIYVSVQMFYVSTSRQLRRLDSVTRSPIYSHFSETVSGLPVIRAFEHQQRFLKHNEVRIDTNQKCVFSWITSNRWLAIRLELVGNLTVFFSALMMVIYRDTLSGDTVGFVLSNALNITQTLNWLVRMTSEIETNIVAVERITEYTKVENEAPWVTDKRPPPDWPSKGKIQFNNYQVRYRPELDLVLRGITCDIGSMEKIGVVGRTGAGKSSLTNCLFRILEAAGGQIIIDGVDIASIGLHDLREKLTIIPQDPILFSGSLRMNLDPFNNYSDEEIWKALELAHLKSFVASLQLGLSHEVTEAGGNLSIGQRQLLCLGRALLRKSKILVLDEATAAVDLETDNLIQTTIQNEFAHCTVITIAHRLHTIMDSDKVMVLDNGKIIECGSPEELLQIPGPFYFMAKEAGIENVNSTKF

T1 sequence (O95255 whole entry): as the sequence (O95255 whole entry) above
Sequence of ATP-binding cassette sub-family C member 2 (Q92887 whole entry): as the sequence (Q92887 whole entry) above

For the compound `CCc1oc2ccccc2c1C(=O)c1cc(Br)c(O)c(Br)c1` [BENZBROMARONE], the Activity in data set [1] is on record as 0%. Further, the activity at 30 µM on MRP6 (ABCC6) [2] and on MRP6 (ABCC6) [3] was 0% throughout.

For the compound `COc1ccc2c(c1)c(CC(=O)O)c(C)n2C(=O)c1ccc(Cl)cc1` [INDOMETHACIN], the activity at 100 µM amounted to 80% at MRP6 (ABCC6) [4] and 20% at MRP6 (ABCC6) [5].

Regarding `CCCN(CCC)S(=O)(=O)c1ccc(C(=O)O)cc1` [PROBENECID], the activity at 1000 µM at MRP6 (ABCC6) [6] came out at 10%; on MRP2 (ABCC2) it was 20%. The Activity in data set [7] was determined as 70%.
